According to patent publication US7968563B2, “Oxime and hydroxylamine substituted imidazo[4,5-c] ring compounds and methods” (3M Innovative Properties Company, priority 2005, dated 2011):
Where a name gives a salt, the structure may show the parent alone.

| SMILES | melting point |
| --- | --- |
| CONCc1nc2c(N)nc3ccccc3c2n1CC(C)(C)O (as salt: hydrochloride) [Example 16, 1-(2-Hydroxy-2-methylpropyl)-2-{[methoxylamino]methyl}-1H-imidazo[4,5-c]quinolin-4-amine; hydrochloride] | 255 to 257 °C |
| CON=Cc1nc2c(N)nc3ccccc3c2n1CC(C)C [Example 4, 4-Amino-1-(2-methylpropyl)-1H-imidazo[4,5-c]quinoline-2-carbaldehyde O-methyloxime] | 181 to 183 °C |
| CON=C(C)CCc1nc2c(N)nc3ccccc3c2n1CC(C)(C)O [Example 5, 4-[4-Amino-1-(2-hydroxy-2-methylpropyl)-1H-imidazo[4,5-c]quinolin-2-yl]butan-2-one O-methyloxime] | 182 to 184 °C |
| CONCc1nc2c(N)nc3cc(OCc4ccccc4)ccc3c2n1CC1CCOCC1 [Example 6, 7-(Benzyloxy)-2-[(methoxyamino)methyl]-1-(tetrahydro-2H-pyran-4-ylmethyl)-1H-imidazo[4,5-c]quinolin-4-amine] | 190 to 193 °C |
| CON(C)Cc1nc2c(N)nc3cc(OCc4ccccc4)ccc3c2n1CC1CCOCC1 [Example 7, 7-(Benzyloxy)-2-{[methoxy(methyl)amino]methyl}-1-(tetrahydro-2H-pyran-4-ylmethyl)-1H-imidazo[4,5-c]quinolin-4-amine] | 159 to 161 °C |
| CON(Cc1nc2c(N)nc3cc(OCc4ccccc4)ccc3c2n1CC1CCOCC1)S(C)(=O)=O [Example 8, N-{[4-Amino-7-(benzyloxy)-1-(tetrahydro-2H-pyran-4-ylmethyl)-1H-imidazo[4,5-c]quinolin-2-yl]methyl}-N-methoxymethanesulfonamide] | 195 to 197 °C |
| CONCc1nc2c(N)nc(C)c(C)c2n1CC(C)C [Example 9, 1-Isobutyl-2-[(methoxyamino)methyl]-6,7-dimethyl-1H-imidazo[4,5-c]pyridin-4-amine] | 154 to 156 °C |
| CON(C)Cc1nc2c(N)nc(C)c(C)c2n1CC(C)C [Example 10, 1-Isobutyl-2-{[methoxy(methyl)amino]methyl}-6,7-dimethyl-1H-imidazo[4,5-c]pyridin-4-amine] | 132 to 134 °C |
| CON(Cc1nc2c(N)nc(C)c(C)c2n1CC(C)C)C(=O)C1CC1 [Example 11, N-[(4-Amino-1-isobutyl-6,7-dimethyl-1H-imidazo[4,5-c]pyridin-2-yl)methyl]-N-methoxycyclopropanecarboxamide] | 135 to 137 °C |
| CONCc1nc2c(N)nc3ccccc3c2n1CC1(O)CCC1 [Example 12, 1-({4-Amino-2-[(methoxyamino)methyl]-1H-imidazo[4,5-c]quinolin-1-yl}methyl)cyclobutanol] | 178 to 181 °C |
| CON(C)Cc1nc2c(N)nc3ccccc3c2n1CC1(O)CCC1 [Example 13, 1-[(4-Amino-2-{[methoxy(methyl)amino]methyl}-1H-imidazo[4,5-c]quinolin-1-yl)methyl]cyclobutanol] | 219 to 221 °C |
| CO/N=C/c1nc2c(N)nc(C)c(C)c2n1CC(C)C [Example 14, 4-Amino-1-isobutyl-6,7-dimethyl-1H-imidazo[4,5-c]pyridine-2-carbaldehyde O-methyloxime] | 179 to 181 °C |
| CON(C)Cc1nc2c(N)nc3ccccc3c2n1CC(C)(C)O [Example 15, 1-(2-Hydroxy-2-methylpropyl)-2-{[methoxy(methyl)amino]methyl}-1H-imidazo[4,5-c]quinolin-4-amine] | 220 to 222 °C |
| CONCc1nc2cnc3ccccc3c2n1CC1CCOCC1 [Example 17, 2-[(Methoxyamino)methyl]-1-(tetrahydro-2H-pyran-4-ylmethyl)-1H-imidazo[4,5-c]quinoline] | 58 to 63 °C |
| CON(C)Cc1nc2cnc3ccccc3c2n1CC1CCOCC1 [Example 18, 2-{[Methoxy(methyl)amino]methyl}-1-(tetrahydro-2H-pyran-4-ylmethyl)-1H-imidazo[4,5-c]quinoline] | 142 to 144 °C |
| CONCc1nc2c(N)nc3ccccc3c2n1CC1CCOCC1 [Example 19, 2-[(Methoxyamino)methyl]-1-(tetrahydro-2H-pyran-4-ylmethyl)-1H-imidazo[4,5-c]quinolin-4-amine] | 169 to 171 °C |
| CON(C)Cc1nc2c(N)nc3ccccc3c2n1CC1CCOCC1 [Example 20, 2-{[Methoxy(methyl)amino]methyl}-1-(tetrahydro-2H-pyran-4-ylmethyl)-1H-imidazo[4,5-c]quinolin-4-amine] | 223 to 226 °C |
